# Measured values from publication PMC8729770, “In Vitro Evaluation of Antimicrobial Peptides from the Black Soldier Fly (Hermetia Illucens) against a Selection of Human Pathogens” (Microbiology Spectrum, 2022).
# Read-outs that look alike come from different tables or passages of the source. Ends that are not written are not given here.
# Key:
# P. aeruginosa ATCC 15442 = conditions: ATCC 15442, 16 h
# K. pneumoniae ATCC 13883 = conditions: ATCC 13883, 16 h
# B. cenocepacia LMG 16656 = conditions: for IC50: read-out: IC50 B. cenocepacia LMG 16656, starting at 32 μM, 10^5 CFU/mL, 48 h, 37°C, resazurin; for MIC B. cenocepacia LMG 16656: visual
# P. aeruginosa ATCC 9027 = test: Inner membrane permeabilization, propidium iodide uptake assay; type: cell-based, Pseudomonas aeruginosa; conditions: 32 μM versus polymyxin B 16 μM
# Experimental: To investigate the IM damage induced by the selected AMPs, a PI (Sigma-Aldrich) uptake assay was performed, adapted from […] et al. ([80]). P. aeruginosa ATCC 9027 was grown until the mid-log phase in MHB. The bacteria were centrifuged (3,000 × g, 15 min) and resuspended in 5 mM HEPES (Sigma-Aldrich) buffer (pH 7.4) to an OD600 of 0.5. […] Fluorescence was measured every 5 min during 1 h using a microplate reader (Promega) at λexcitation = 530 nm and λemission = 620. Data were normalized based on the fluorescent signal in the presence of 50 μL HEPES buffer and 150 μL PI bacterial suspension. The assay was carried out in triplicate.
# [1] = tested on: preformed P. aeruginosa ATCC 15442 biofilm; test: Biofilm eradication (postexposure); type: cell-based, Pseudomonas aeruginosa; conditions: 128-0.5 μM, 16 h; resazurin
# Experimental: After 16 h of incubation at 37°C and shaking at 110 rpm (New Brunswick Innova 4300), a resazurin assay was used as described by Gilbert-Girard et al. to determine the viability of the bacterial cells in the biofilm ([79]). After incubation, the growth medium was removed from the well plates and the bacterial biofilms were washed once with PBS to remove remaining planktonic cells. […] The fluorescence of the wells was measured at λexcitation = 550 nm and λemission = 590 using a microplate reader (Promega). Afterwards, a crystal violet staining was applied to determine the biomass of the biofilms ([79]). The resazurin solution was removed from the well plates and 200 μL of 100% ethanol (VWR Chemicals) was added to fix the biofilms. After 15 min of incubation, the ethanol was discarded from the wells and the plates were left to air dry for 30 min. […] The staining solution was removed after 5 min and the biofilms were washed with PBS. After air-drying for 10 min, the crystal violet stain was solubilized in 200 μL of 100% ethanol. […] The experiment was carried out three times. Polymyxin B sulfate (Sigma-Aldrich) was included as a reference. […] The next day, bacterial viability and biomass were determined with a resazurin assay and crystal violet assay as described earlier. […]
# S. aureus ATCC 6538 = type: cell-based, Staphylococcus aureus; conditions: determined visually, 16 h
# Method in brief: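 Peptides were serially diluted (64–0.25 μM, repeat 32–0.016 μM) against 5 × 10^3 CFU/mL inocula in MHB (bacteria) or RPMI (fungi) at 37°C for 16 h (bacteria), 24 h (C. albicans) or 48 h (A. fumigatus). MIC was read visually with resazurin readout; MBC was defined as ≥3 log reduction on MHA.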
substance,measurement,setting,value
RWYKKIFKPVEKAVQRVRDGTLQALGVAQQAANVYATAQGAQQQRHA-NH2 [Hill-Cec10],MIC P. aeruginosa ATCC 15442,P. aeruginosa ATCC 15442,4 µM
same,MIC K. pneumoniae,K. pneumoniae ATCC 13883,0.5 to 1 µM
same,IC50,B. cenocepacia LMG 16656; repeat 1,> 32 µM
same,IC50,B. cenocepacia LMG 16656; repeat 2,> 32 µM
same,MIC B. cenocepacia LMG 16656,B. cenocepacia LMG 16656; repeat 1,>32 µM
same,MIC B. cenocepacia LMG 16656,B. cenocepacia LMG 16656; repeat 2,>32 µM
same,PI uptake (inner membrane permeabilization),P. aeruginosa ATCC 9027,exceeds that of a high dose of polymyxin B
same,effect on viability of preformed biofilm compared with the untreated control,[1],No significant effect
same,MIC S. aureus ATCC 6538,"S. aureus ATCC 6538; repeat 1, 64-0.25 μM",> 64.00 µM
same,MIC S. aureus ATCC 6538,"S. aureus ATCC 6538; repeat 2, 32-0.016 μM",> 32.00 µM
